Measurements taken from patent publication US12011438B2, “Composition for protecting cardiomyocyte” (Kyoto University, priority 2018, dated 2024).
Counter-ions that a name gives are not always drawn.

How the values were obtained:
[1] = system: H9C2 cells, rat cardiomyoblasts; test: Rat cardiomyoblasts under ER stress with tunicamycin: cell number and ATP level; assay type: cell-based; details: 0.1 pg/mL tunicamycin, 25, 50, 100, or 200 pM KUS121, 24 hours
Method: (§1) H9C2 cells, rat cardiomyoblasts, were cultured in Dulbecco's modified Eagle's medium (DMEM) supplemented with 5% fetal bovine serum in the presence of […] tunicamycin (Sigma-Aldrich Co. LLC), which induces ER stress, and 25, 50, 100, or […] KUS121 for 24 hours. The cells were counted by Countess II (Thermo Fisher Scientific). The intracellular ATP levels were measured using “Cell” ATP Assay reagent (TOYO B-Net Co., LTD). The luciferase activities, which indicate ATP levels, were measured with ARVO X3 (PerkinElmer, Inc.).

[2] = system: CHOP and Bip, ER stress markers; test: Western blotting of ER stress markers in rat cardiomyoblasts under tunicamycin; assay type: cell-based; details: H9C2 cells, 200 μM KUS121 (FIG. 5)
Method: as §1
(§2) The cells cultured as above were subjected to Western blotting. […] After the protein concentrations were measured with BCA protein assay kit (Bio-Rad, 5000006JA), 15 μg of the protein samples were separated in NuPAGE 4-12% Bis-Tris Mini gels (Thermo Fisher Scientific) and transferred to Protran nitrocellulose transfer membrane (Whatman). The membrane was blocked with PBS containing 5% skim milk for 30 minutes, incubated with primary antibodies overnight at 4° C., washed with PBS-0.05% Tween-20 (PBS-T), incubated with secondary antibodies for 1 hour at room temperature, and washed with PBS-T. Pierce Western Blotting Substrate (Thermo Fisher Scientific) or Pierce Western Blotting Substrate plus (Thermo Fisher Scientific) were reacted with the secondary antibodies for producing colors, and the color intensities were measured by LAS-4000 Mini system (Fuji Film). […]

[3] = system: H9C2 cells, rat cardiomyoblasts; test: Rat cardiomyoblasts under ER stress by glucose depletion: cell number and ATP level; assay type: cell-based; details: glucose-free medium, 25, 50, 100, or 200 μM KUS121 (FIG. 6)
Method: as §1
Similar experiments were performed using the cells cultured in a glucose-free medium. […] The expressions of CHOP and Bip, ER stress markers, were suppressed in the presence of KUS121.

[4] = system: CHOP and Bip, ER stress markers; test: Western blotting of ER stress markers in rat cardiomyoblasts in glucose-free medium; assay type: cell-based; details: H9C2 cells, 200 μM KUS121 (FIG. 7)
Method: as §1, §2

[5] = system: cardiac ischemia and reperfusion injury model mice; test: Mouse cardiac ischemia and reperfusion injury model (KUS administration prior to ischemia); assay type: in vivo
Method: Eight-week-old C57BL/6J mice were used. Each mouse was anesthetized with intraperitoneally administered pentobarbital (64.8 mg/kg). An endotracheal tube was introduced after the anesthetic induction and positive pressure ventilation was provided.
Each mouse was fixed in a right lateral position, the thoracic cavity was opened through left thoracotomy in the third intercostal space to expose the heart. […] The blockage of the coronary blood flow was confirmed by observing a change in the color of the myocardium. The ischemia was continued for 45 minutes and then reperfusion was induced by removing the PE10 tube. The reperfusion was confirmed by checking restoration of the color of the myocardium. The thoracic cavity was closed with 7-0 prolene sutures and the skin was closed with 4-0 silk sutures. After observing awakening from the anesthesia, the endotracheal tube was removed.
KUS121 dissolved in a physiological saline was injected prior to the ischemia induction. […] First, 2 hours before the reperfusion, i.e., about 1 hour before the start of the ischemia, KUS121 was intraperitoneally administered at the dose of 160 mg/kg. Subsequently, KUS121 was intraperitoneally administered at the dose of 160 mg/kg every 24 hours for 6 days.
Seven days after the surgery, the mice were anesthetized with pentobarbital, perfused with 4% paraformaldehyde (PFA) for fixation, and the hearts were isolated. The isolated hearts were further fixed in 4% PFA overnight. The hearts were embedded in paraffin and sections were prepared. The infarcted regions were evaluated with Masson's trichrome staining. The images were acquired using a microscope (BZ-9000, Keyence) and the infarcted areas were measured using Image J (NIH).
To evaluate the cardiac function, echocardiography (Vevo^(registered trademark) 2100, VISUALSONICS) was performed in the mouse ischemia and reperfusion injury model. […] The left ventricular systolic functions were evaluated by measuring the left ventricular fractional shortening and left ventricular ejection fraction in parasternal short axis views.

[6] = system: A team mouse heart ischemia and reperfusion injury model; test: Mouse heart ischemia and reperfusion injury model (ATP visualization mouse); assay type: in vivo; details: A team mice, 160 mg/kg i.p. 2 hours before reperfusion, 45 minutes ischemia
Description: ATP visualization mouse (A team mouse) generated by Dr. Masamichi Yamamoto (Department of Nephrology, Graduate School of Medicine, Kyoto University) was used. In A team mouse fluorescence resonance energy transfer (FRET) from GFP to OFP occurs depending on the intracellular ATP level. The OFP/GFP ratio is proportional to the ATP level.
Anesthesia was induced in each A team mouse with 4% isoflurane and maintained with 2% isoflurane during surgery. An endotracheal tube was introduced after the anesthetic induction and positive pressure ventilation was provided. The lateral thoracic regions and subcostal margins were incised bilaterally and the thoracic cavity was opened to expose the heart. […] The ischemia was continued for 45 minutes and then reperfusion was induced by removing the PE10 tube. KUS121 was intraperitoneally administered at the dose of 160 mg/kg 2 hours before the reperfusion. For measuring the ATP level, fluorescence was excited at 470/40 and detected at 515/30 for GFP and 575/40 for OFP to acquire images. The OFP/GFP ratios were analyzed using MetaMorph (Molecular Devices). The ATP level during ischemia was decreased in the control group, but maintained in the KUS121 group.

[7] = system: cardiac ischemia and reperfusion injury model mice; test: Mouse cardiac ischemia and reperfusion injury model (KUS administration after reperfusion); assay type: in vivo; details: seven days after surgery
Method: Mouse myocardial infarction model was prepared as in Test 5.
First, immediately after the reperfusion KUS121 was administered intravenously at the dose of 80 mg/kg and intraperitoneally at the dose of 80 mg/kg. Subsequently, KUS121 was intraperitoneally administered at the dose of 160 mg/kg every 24 hours for 4 days. Seven days after the surgery, histological analysis was performed as in Test 5 to determine the infarcted area.
Immediately after the reperfusion KUS121 was administered intravenously at the dose of 25 mg/kg and intraperitoneally at the dose of 25 mg/kg. Subsequently, KUS121 was not administered. Seven days after the surgery, histological analysis was performed as in Test 5 to determine the infarcted area.
Immediately after the reperfusion KUS121 was administered intravenously at the dose of 8 mg/kg and intraperitoneally at the dose of 8 mg/kg. Subsequently, KUS121 was not administered. Seven days after the surgery, histological analysis was performed as in Test 5 to determine the infarcted area.

[8] = system: cardiac ischemia and reperfusion injury model pigs; test: Porcine cardiac ischemia and reperfusion injury model (intravenous and intracoronary administration of KUS); assay type: in vivo, Yorkshire pig
Method: Porcine myocardial infarction model was prepared by inserting a catheter into a Yorkshire pig under general anesthesia and occluding the left coronary artery with a balloon. An infusion solution was prepared by dissolving KUS121 (4 mg/kg) in 250 mL of glucose solution and administered by intravenous infusion that started 45 minutes after the occlusion of the coronary artery and continued for 3 hours. The balloon was released 60 minutes after the occlusion, and 10 mL of the infusion solution was infused intracoronarily.
One week after the occlusion, the infarct size was evaluated by late gadolinium enhanced MRI. […] The cardiac function was evaluated by determining left ventricular ejection fraction, end diastolic volume, end systolic volume, cardiac output, and left ventricular mass by MRI. The left ventricular systolic function was improved by KUS121 administration.
After the MRI, the occluded part of the left coronary artery was occluded again with the balloon catheter and 1% Evans blue was injected to the left and right coronary arteries (60 mL for the left coronary artery and 30 mL for the right coronary artery; non-infarct regions were stained blue). Additionally, 30 mL of 1% TTC solution was injected through the guidewire lumen of the occlusion balloon. Euthanasia was then performed by an intravenous injection of potassium chloride. The heart was isolated and 10-mm thick sections were prepared parallel to the atrioventricular groove. The sections were further immersed in 1% TTC solution for 10 minutes at 37° C. (regions not damaged by myocardial infarction were stained red). All sections were weighed and photographed. They were fixed in 10% formaldehyde and used for subsequent histological analysis. […] No difference was found in the area at risk between the […] group and the KUS group, but administration of KUS decreased the infarcted area per area at risk.

[9] = system: cardiac ischemia and reperfusion injury model pigs; test: Porcine cardiac ischemia and reperfusion injury model (KUS administration after reperfusion); assay type: in vivo, Yorkshire pig; details: intracoronary injection 0.64, 2.5, or 5.0 mg/kg immediately after reperfusion, seven days after surgery
Method: Porcine myocardial infarction model was prepared as in Test 8. The balloon was released 60 minutes after the occlusion, and immediately KUS121 was administered by intracoronary injection at a dose of 0.64, 2.5, or 5.0 mg/kg for 3 minutes. Seven days after the surgery, the infarct size was evaluated by MRI and the infarcted area was determined by histological analysis as in Test 8.

[10] = intravenous infusion plus intracoronary, histological analysis (Evans blue/TTC)

Cc1cc(F)ccc1-c1ccc(/N=N/c2cc(S(=O)(=O)O)c3ccccc3c2N)cn1 [KUS121, 4-amino-3-[6-(4-fluoro-2-methylphenyl)pyridine-3-ylazo]naphthalene-1-sulfonic acid sodium salt]
ATP level [1]: increased depending on the dose | cell number [1]: increased depending on the dose | expression of Bip [2]: suppressed | expression of CHOP [2]: suppressed | ATP level [3]: increased depending on the dose | cell number [3]: increased depending on the dose | expression of Bip [4]: suppressed | expression of CHOP [4]: suppressed | infarcted area (ratio to left ventricle area) ([5]; 160 mg/kg i.p. 2 hours before reperfusion and every 24 hours for 6 days, seven days after surgery, Masson's trichrome): smaller in the KUS121 group than in the control group | expression of CHOP in the border zone and non-ischemic zone ([5]; 160 mg/kg i.p. prior to ischemia and every 24 hours, Western blotting): suppressed | left ventricular systolic function (fractional shortening, ejection fraction) ([5]; 160 mg/kg i.p. prior to ischemia and every 24 hours, echocardiography): kept well at almost the same level as that in sham-operated group | ATP level during ischemia (OFP/GFP ratio) [6]: maintained | infarcted area (ratio to left ventricle area) ([7]; (1) 160 mg/kg: 80 mg/kg i.v. + 80 mg/kg i.p. immediately after reperfusion, then 160 mg/kg i.p. every 24 hours for 4 days): smaller in the KUS121 group than in the control group | infarcted area (ratio to left ventricle area) ([7]; (2) 50 mg/kg: 25 mg/kg i.v. + 25 mg/kg i.p. immediately after reperfusion only): smaller in the KUS121 group than in the control group | infarcted area (ratio to left ventricle area) ([7]; (3) 16 mg/kg: 8 mg/kg i.v. + 8 mg/kg i.p. immediately after reperfusion only): No significant difference | left ventricular systolic function ([8]; 4 mg/kg intravenous infusion for 3 hours plus intracoronary infusion after reperfusion, MRI one week after occlusion): improved | area at risk relative to the left ventricle [8, 10]: No difference | infarcted area per area at risk [8, 10]: decreased | ratio of infarcted area/left ventricle (LV) area evaluated by MRI [9]: decreased in the KUS121 group in a dose-dependent manner | ratio of infarcted area/AAR ([9]; histological analysis): decreased in the KUS121 group in a dose-dependent manner | ratio of infarcted area/area at risk (AAR) (first mention) ([9]; versus control group): comparable with that of the control group
